Reference: patent publication US8227210B2, “Positive control proteins for glucose transporter proteins and processes for the generation of such positive control proteins” (East Tennessee State University Research Foundation, priority 2008, dated 2012)
Values joined by “and” are separate entries in the source; they are usually repeats but may differ in a detail not shown here. Equal values may be shown once. “Also recorded” adds a separate entry of the source.

How the values were obtained:
SEQ ID NO. 12 (GLUT4) [1] = test: Euglycemic insulin clamp: GLUT4 in plasma membrane-enriched (PM) fraction of vastus lateralis biopsies, quantitative immunoblot; format: in vivo, human
Experimental: (§1) Muscle biopsies: Percutaneous needle biopsies of vastus lateralis were performed using a 5 mm Bergstrom-Stille needle under suction after an overnight fast and two hours of quiet recumbency as previously described (6). A 50-100 mg specimen was quickly blotted and the entire sample was frozen in liquid nitrogen for later analysis.
(§2) Fractionation of muscle microsamples: We have made minor modifications of our previously described techniques (10). Briefly, 50 mg muscle is removed from the −80° C. freezer and slowly thawed on ice. The muscle is homogenized in 1.0 ml Buffer A (250 mM sucrose, 20 mM HEPES, pH 7.4) with 5 μL protease cocktail (Cocktail Kit Pierce #78410) added. Initial homogenization is 30 seconds with a Pellet Pestle Motor (Kontes). The homogenate is passed through a BD Falcon 100 μm Cell Strainer and after adding 100 μL Buffer B (3M KCl, 250 roM sodium pyrophosphate), is spun at 227,000×g for 30 minutes. The pellet is resuspended in 1.0 mL of Buffer A with protease cocktail using the Pellet Pestle Motor again for 30 seconds. This sample is then spun at 12,000×g for 20 minutes. […]
(§3) Immunoblot technique: Immunoblotting was performed essentially as previously described (11). […] Image analysis was performed on scanned film digital files using Quantity One version 4.5.2 software from Bio-Rad (Hercules, Calif.). […]

SEQ ID NO. 16 (GLUT12) = test: Euglycemic insulin clamp: GLUT12 in plasma membrane-enriched (PM) fraction of vastus lateralis biopsies, quantitative immunoblot; format: in vivo, human
Experimental: as §1
Fractionation of muscle microsamples: We have made minor modifications of our previously described techniques (10). Briefly, 50 mg muscle is removed from the −80° C. freezer and slowly thawed on ice. The muscle is homogenized in 1.0 ml Buffer A (250 mM sucrose, 20 mM HEPES, pH 7.4) with 5 μL protease cocktail (Cocktail Kit Pierce #78410) added. Initial homogenization is 30 seconds with a Pellet Pestle Motor (Kontes). The homogenate is passed through a BD Falcon 100 μm Cell Strainer and after adding 100 μL Buffer B (3M KCl, 250 roM sodium pyrophosphate), is spun at 227,000×g for 30 minutes. The pellet is resuspended in 1.0 mL of Buffer A with protease cocktail using the Pellet Pestle Motor again for 30 seconds. This sample is then spun at 12,000×g for 20 minutes. The pellet is resuspended in 200 μl, Boston Bioproducts Triton Lysis Buffer with Protease Inhibitor (BP-117) using the Pellet Pestle Motor. This sample is designated PM, the plasma membrane-enriched fraction. The supernate is removed and spun at 227,000×g for 30 minutes. The resulting pellet is also resuspended in 200 μL Boston. Bioproducts Triton Lysis Buffer, and is designated LDM, the low density microsomes fraction. PM protein content averaged 139±7 μg and LDM contained 265±8 μg protein. In studies performed on human control muscle sample fractions, the PM fraction contained 80% of the immunological signal for the plasma membrane marker Na/K+ ATPase α-I (05-369 from Millipore). LDM contained 67% of the golgi marker mannosidase II (AB3712 from Chemicon).
as §3

SEQ ID NO. 10 (GLUT1) = test: Euglycemic insulin clamp: GLUT1 in plasma membrane-enriched (PM) fraction of vastus lateralis biopsies, immunoblot; format: in vivo, human
Experimental: as §1, §2, §3

[2] = tested on: SEQ ID NO. 12 (GLUT4) translocation in L6 myoblasts; test: Insulin-stimulated translocation of GLUT4 to PM fraction in L6 myoblasts and its inhibition by PI3-K inhibitor; format: cell-based, rat; conditions: L6 cells, 10 ng/mL insulin
Experimental: (§4) Fractionation of L6 muscle cells: L6 cells were obtained from ATCC and cultured in D.MEM medium with 10% fetal bovine serum with subculturing every three to five days. For the studies described below, cells were grown to near confluence in 100 mm dishes. Cells were harvested in 1 mL homogenization Buffer A containing 5 μL protease inhibitors using a rubber policeman. The remainder of the technique is the same as muscle microsamples. The yield of protein averaged 199±14 μg for PM and 419±22 μg for LDM. Immunoblot technique: Immunoblotting was performed essentially as previously described (11). In general, 10-20 μg protein from muscle homogenate or fractions was separated on a 10% polyacrylamide gel using the Laemmli system (12), transferred to a nitrocellulose membrane, subjected to blocking with 2.5% non-fat dry milk in phosphate-buffered saline, incubated with a validated dilution of one of the anti-GLUT antibodies above including 1.25% milk, and developed with the enhanced chemiluminescence reagent and X-ray film. Image analysis was performed on scanned film digital files using Quantity One version 4.5.2 software from Bio-Rad (Hercules, Calif.). The specificity of the antibodies employed for GLUT1 SEQ ID NO. […] After harvesting and fractionating the cells, samples from the fractions were subjected to immunoblotting and digital images were quantified by image analysis software. […]

[3] = tested on: SEQ ID NO. 16 (GLUT12) translocation in L6 myoblasts; test: Insulin-stimulated translocation of GLUT12 to PM fraction in L6 myoblasts and its inhibition by PI3-K inhibitor; format: cell-based, rat; conditions: L6 cells, 10 ng/mL insulin
Experimental: as §4

SEQ ID NO. 12 (GLUT4) [4] = conditions: cited from earlier work
[5] = Euglycemic insulin clamp: plasma insulin concentration and glucose infusion rate
Experimental: Euglycemic insulin clamp studies: Insulin infusion studies were performed essentially as previously described (8; 9) except no isotope or somatostatin were used in this study. Mter an overnight fast, subjects were maintained in quiet recumbency for two hours to minimize the effects of muscular activity on protein subcellular localization. After a baseline muscle biopsy, a constant insulin infusion was performed at 40 mU/m2/min for three hours. A second muscle biopsy was performed on the contralateral side in the last 10 minutes of the insulin infusion period.

insulin: insulin given as constant euglycemic infusion at 40 mU/m2/min, or 10 ng/mL on L6 cells
GLUT4 distribution in the plasma membrane-enriched (PM) fractions (SEQ ID NO. 12 (GLUT4) [1]; end of 3 h insulin infusion at 40 mU/m2/min, six normal volunteers, baseline 13%): 42% | Change of GLUT4 content of the PM fraction in response to insulin infusion (SEQ ID NO. 12 (GLUT4) [1]; insulin infusion vs baseline, each subject): more than doubled; also recorded: at least doubled | GLUT12 distribution in the plasma membrane-enriched (PM) fractions (SEQ ID NO. 16 (GLUT12); end of 3 h insulin infusion at 40 mU/m2/min, six normal volunteers, baseline 17%): 38% | Change of GLUT12 content of the PM fraction in response to insulin infusion (SEQ ID NO. 16 (GLUT12); insulin infusion vs baseline): more than doubled in four of the six subjects | Minimum increase of GLUT12 content of the PM fraction (SEQ ID NO. 16 (GLUT12); insulin infusion vs baseline, minimum response among six subjects): ≥ 60% | Change of GLUT1 distribution/signal in LDM and PM fractions after insulin (SEQ ID NO. 10 (GLUT1); insulin infusion vs baseline): did not change; also recorded: no change | GLUT1 content in the PM fractions (SEQ ID NO. 10 (GLUT1); post-insulin infusion, subjects 1-5, baseline 78±7%): 79±9% and 79% | Translocation of GLUT4 to the PM fraction by insulin [2]: caused translocation; also recorded: moved from the fraction to the PM fraction | Translocation of GLUT12 to the PM fraction by insulin [3]: translocated; also recorded: caused translocation; also recorded: moved from the fraction to the PM fraction | Increase in GLUT4 in the muscle plasma membrane fractions (Zierath) (SEQ ID NO. 12 (GLUT4) [4]; after euglycemic insulin infusion, same infusion rate, literature ref 26): 60% | Increase in sarcolemma-associated GLUT4 by confocal quantitative immunohistochemistry (Kelley) (SEQ ID NO. 12 (GLUT4) [4]; control subjects, literature ref 24): 85% | Increase in GLUT4 in muscle plasma membrane-enriched fractions (Garvey) (SEQ ID NO. 12 (GLUT4) [4]; ten-fold higher insulin infusion, control subjects, literature ref 25): 2.8 fold | Plasma insulin concentration ([5]; infusion of insulin at 40 mU/m2/min, baseline 28±7 pmol/L): 343 ± 21 pmol/L | Mean glucose infusion rate to maintain blood glucose of 85 mg/dL ([5]; steady state period of the insulin infusion): 8.87 mg/kg·min
